Data from ChEMBL document CHEMBL5465560, “Selectivity Literature for EUbOPEN Chemogenomic Library” (2024).

What was measured:
[1] = target: Histone-lysine N-methyltransferase 2A (Homo sapiens) (UniProt Q03164); experiment: Selectivity interaction (Human bromodomain panel (DSF assay)) EUB0000233b MLL
[2] = target: T1, Membrane-associated tyrosine- and threonine-specific cdc2-inhibitory kinase (Homo sapiens) (UniProt Q99640); experiment: Selectivity interaction (KinomeScan (DiscoverX)) EUB0000607a PKMYT1; conditions: at 10 µM
T1 sequence (whole entry): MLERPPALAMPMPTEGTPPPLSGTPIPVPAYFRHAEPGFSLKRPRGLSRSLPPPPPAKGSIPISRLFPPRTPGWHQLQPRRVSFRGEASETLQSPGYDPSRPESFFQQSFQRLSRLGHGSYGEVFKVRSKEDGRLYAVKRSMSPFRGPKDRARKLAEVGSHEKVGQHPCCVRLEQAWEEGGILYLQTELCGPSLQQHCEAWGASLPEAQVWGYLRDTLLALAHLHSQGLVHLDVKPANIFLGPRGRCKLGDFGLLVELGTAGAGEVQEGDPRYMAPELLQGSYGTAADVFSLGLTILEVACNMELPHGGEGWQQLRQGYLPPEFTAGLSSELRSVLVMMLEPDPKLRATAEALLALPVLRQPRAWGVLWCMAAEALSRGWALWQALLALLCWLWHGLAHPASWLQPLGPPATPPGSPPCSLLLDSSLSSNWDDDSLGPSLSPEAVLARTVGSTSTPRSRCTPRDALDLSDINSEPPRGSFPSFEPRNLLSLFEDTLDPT

[3] = target: Tyrosine-protein kinase Lyn (Homo sapiens, UniProt P07948); experiment: Selectivity interaction (ActivX KiNativ screen (kinase selectivity in THP-1 cell lysates)) EUB0000639a LYN; format: subcellular; conditions: lysate
Sequence of Tyrosine-protein kinase Lyn (P07948 2-512 limits assumed): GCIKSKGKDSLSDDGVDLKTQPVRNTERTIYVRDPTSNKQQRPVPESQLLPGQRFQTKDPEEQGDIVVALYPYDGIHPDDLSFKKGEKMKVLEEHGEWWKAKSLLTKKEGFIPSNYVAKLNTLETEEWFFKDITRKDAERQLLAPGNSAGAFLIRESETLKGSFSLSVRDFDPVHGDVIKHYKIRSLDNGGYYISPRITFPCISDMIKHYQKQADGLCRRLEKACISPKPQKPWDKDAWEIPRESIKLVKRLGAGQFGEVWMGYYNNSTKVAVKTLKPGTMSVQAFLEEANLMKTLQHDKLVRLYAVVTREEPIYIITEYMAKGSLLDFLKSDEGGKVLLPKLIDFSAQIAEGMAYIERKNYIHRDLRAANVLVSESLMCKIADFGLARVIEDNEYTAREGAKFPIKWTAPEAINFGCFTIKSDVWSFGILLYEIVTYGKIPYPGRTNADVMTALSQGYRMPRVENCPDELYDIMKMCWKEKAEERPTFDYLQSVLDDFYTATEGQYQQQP

[4] = target: T2, Uncharacterized serine/threonine-protein kinase SBK3 (Homo sapiens) (UniProt P0C264); experiment: Selectivity interaction (KinomeScan (DiscoverX)) EUB0000595a SBK3; conditions: at 10 µM
T2 sequence (whole entry): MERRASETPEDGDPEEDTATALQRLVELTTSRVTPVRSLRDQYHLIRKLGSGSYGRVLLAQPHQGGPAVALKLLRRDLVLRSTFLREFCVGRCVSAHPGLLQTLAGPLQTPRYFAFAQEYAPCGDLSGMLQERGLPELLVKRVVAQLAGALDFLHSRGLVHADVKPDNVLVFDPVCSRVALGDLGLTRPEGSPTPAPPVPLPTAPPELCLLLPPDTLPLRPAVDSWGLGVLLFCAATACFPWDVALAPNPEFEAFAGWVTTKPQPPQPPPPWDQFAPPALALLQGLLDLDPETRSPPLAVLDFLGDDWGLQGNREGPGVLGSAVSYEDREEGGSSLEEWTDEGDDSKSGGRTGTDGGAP

[5] = target: T3, Histone-lysine N-methyltransferase SMYD3 (Homo sapiens) (UniProt Q9H7B4); conditions: at 1 µM
T3 sequence (whole entry): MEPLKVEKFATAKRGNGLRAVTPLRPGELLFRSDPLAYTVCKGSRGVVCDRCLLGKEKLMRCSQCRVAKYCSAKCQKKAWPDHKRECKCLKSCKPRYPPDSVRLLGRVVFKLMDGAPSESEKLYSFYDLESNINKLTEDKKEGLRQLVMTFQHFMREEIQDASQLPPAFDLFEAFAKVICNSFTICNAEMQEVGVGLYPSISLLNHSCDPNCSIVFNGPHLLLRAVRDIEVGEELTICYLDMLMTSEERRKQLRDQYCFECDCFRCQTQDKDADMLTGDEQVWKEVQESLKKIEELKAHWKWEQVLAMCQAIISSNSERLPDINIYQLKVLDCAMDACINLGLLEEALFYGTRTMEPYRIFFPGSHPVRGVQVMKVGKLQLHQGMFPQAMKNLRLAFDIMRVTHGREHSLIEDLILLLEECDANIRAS

[6] = target: Serine/threonine-protein kinase PAK 3 (Homo sapiens) (UniProt O75914); conditions: at 10 µM
Sequence of Serine/threonine-protein kinase PAK 3 (Homo sapiens) (O75914 whole entry, looked up): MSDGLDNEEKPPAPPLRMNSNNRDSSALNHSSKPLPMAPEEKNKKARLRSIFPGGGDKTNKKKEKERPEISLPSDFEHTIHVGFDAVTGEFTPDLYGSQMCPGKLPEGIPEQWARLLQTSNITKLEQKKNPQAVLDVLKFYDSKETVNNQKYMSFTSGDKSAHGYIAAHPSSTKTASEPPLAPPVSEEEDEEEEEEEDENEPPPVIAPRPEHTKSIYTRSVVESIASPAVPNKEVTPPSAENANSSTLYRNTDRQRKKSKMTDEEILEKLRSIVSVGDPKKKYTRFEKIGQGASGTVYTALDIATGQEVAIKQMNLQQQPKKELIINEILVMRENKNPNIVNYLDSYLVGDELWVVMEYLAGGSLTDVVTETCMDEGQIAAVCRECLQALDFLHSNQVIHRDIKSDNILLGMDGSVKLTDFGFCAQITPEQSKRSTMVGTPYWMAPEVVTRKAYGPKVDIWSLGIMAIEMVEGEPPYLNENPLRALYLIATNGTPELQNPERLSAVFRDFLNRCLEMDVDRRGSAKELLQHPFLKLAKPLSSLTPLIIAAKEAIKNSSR

[7] = target: T4, Mitogen-activated protein kinase 13 (Homo sapiens) (UniProt O15264); experiment: Selectivity interaction (KinomeScan (DiscoverX)) EUB0000618a MAPK13; conditions: at 10 µM
T4 sequence (whole entry): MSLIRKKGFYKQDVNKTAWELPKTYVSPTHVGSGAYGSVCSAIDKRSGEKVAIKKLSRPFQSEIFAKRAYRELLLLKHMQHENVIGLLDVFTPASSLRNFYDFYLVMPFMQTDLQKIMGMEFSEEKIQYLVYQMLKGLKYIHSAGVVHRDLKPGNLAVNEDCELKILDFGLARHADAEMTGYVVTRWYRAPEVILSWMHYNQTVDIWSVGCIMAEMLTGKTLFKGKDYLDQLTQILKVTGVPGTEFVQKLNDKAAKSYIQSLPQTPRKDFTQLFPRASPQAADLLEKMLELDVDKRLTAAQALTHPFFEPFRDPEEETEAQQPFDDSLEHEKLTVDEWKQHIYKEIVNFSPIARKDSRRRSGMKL

[8] = target: Mitogen-activated protein kinase kinase kinase 4 (Homo sapiens) (UniProt Q9Y6R4); experiment: Selectivity interaction (KinomeScan (DiscoverX)) EUB0000618a MAP3K4; conditions: at 10 µM
[9] = target: T5, Cyclin-dependent kinase 11A (Homo sapiens) (UniProt Q9UQ88); experiment: Selectivity interaction (ActivX KiNativ screen (ex vivo kinase selectivity in human PBMCs)) EUB0001619a CDK11A; format: cell-based; conditions: PBMC, at 1 µM
T5 sequence (whole entry): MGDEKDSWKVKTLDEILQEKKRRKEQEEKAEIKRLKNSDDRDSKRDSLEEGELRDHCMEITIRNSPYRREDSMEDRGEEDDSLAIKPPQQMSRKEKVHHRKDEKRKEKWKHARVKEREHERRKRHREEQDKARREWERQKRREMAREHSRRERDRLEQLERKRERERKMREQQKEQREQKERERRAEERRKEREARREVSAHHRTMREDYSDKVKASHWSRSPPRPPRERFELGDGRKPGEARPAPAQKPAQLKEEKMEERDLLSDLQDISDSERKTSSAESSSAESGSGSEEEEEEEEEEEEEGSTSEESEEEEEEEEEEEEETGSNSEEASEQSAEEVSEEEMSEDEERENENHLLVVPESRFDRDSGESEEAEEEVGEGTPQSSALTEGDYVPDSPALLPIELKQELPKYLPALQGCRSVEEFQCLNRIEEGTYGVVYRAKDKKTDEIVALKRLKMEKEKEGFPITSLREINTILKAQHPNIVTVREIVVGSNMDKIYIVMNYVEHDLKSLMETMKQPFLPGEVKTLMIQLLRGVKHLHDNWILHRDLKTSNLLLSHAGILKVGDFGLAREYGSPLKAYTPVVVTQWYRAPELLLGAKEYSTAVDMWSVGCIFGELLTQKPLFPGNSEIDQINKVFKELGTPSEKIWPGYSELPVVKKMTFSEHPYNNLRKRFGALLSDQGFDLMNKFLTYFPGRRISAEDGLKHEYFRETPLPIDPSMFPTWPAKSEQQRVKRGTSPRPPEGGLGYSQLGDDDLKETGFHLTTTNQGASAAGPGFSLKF

Sequence of Histone-lysine N-methyltransferase 2A (Homo sapiens) (Q03164 1-2718 limits assumed): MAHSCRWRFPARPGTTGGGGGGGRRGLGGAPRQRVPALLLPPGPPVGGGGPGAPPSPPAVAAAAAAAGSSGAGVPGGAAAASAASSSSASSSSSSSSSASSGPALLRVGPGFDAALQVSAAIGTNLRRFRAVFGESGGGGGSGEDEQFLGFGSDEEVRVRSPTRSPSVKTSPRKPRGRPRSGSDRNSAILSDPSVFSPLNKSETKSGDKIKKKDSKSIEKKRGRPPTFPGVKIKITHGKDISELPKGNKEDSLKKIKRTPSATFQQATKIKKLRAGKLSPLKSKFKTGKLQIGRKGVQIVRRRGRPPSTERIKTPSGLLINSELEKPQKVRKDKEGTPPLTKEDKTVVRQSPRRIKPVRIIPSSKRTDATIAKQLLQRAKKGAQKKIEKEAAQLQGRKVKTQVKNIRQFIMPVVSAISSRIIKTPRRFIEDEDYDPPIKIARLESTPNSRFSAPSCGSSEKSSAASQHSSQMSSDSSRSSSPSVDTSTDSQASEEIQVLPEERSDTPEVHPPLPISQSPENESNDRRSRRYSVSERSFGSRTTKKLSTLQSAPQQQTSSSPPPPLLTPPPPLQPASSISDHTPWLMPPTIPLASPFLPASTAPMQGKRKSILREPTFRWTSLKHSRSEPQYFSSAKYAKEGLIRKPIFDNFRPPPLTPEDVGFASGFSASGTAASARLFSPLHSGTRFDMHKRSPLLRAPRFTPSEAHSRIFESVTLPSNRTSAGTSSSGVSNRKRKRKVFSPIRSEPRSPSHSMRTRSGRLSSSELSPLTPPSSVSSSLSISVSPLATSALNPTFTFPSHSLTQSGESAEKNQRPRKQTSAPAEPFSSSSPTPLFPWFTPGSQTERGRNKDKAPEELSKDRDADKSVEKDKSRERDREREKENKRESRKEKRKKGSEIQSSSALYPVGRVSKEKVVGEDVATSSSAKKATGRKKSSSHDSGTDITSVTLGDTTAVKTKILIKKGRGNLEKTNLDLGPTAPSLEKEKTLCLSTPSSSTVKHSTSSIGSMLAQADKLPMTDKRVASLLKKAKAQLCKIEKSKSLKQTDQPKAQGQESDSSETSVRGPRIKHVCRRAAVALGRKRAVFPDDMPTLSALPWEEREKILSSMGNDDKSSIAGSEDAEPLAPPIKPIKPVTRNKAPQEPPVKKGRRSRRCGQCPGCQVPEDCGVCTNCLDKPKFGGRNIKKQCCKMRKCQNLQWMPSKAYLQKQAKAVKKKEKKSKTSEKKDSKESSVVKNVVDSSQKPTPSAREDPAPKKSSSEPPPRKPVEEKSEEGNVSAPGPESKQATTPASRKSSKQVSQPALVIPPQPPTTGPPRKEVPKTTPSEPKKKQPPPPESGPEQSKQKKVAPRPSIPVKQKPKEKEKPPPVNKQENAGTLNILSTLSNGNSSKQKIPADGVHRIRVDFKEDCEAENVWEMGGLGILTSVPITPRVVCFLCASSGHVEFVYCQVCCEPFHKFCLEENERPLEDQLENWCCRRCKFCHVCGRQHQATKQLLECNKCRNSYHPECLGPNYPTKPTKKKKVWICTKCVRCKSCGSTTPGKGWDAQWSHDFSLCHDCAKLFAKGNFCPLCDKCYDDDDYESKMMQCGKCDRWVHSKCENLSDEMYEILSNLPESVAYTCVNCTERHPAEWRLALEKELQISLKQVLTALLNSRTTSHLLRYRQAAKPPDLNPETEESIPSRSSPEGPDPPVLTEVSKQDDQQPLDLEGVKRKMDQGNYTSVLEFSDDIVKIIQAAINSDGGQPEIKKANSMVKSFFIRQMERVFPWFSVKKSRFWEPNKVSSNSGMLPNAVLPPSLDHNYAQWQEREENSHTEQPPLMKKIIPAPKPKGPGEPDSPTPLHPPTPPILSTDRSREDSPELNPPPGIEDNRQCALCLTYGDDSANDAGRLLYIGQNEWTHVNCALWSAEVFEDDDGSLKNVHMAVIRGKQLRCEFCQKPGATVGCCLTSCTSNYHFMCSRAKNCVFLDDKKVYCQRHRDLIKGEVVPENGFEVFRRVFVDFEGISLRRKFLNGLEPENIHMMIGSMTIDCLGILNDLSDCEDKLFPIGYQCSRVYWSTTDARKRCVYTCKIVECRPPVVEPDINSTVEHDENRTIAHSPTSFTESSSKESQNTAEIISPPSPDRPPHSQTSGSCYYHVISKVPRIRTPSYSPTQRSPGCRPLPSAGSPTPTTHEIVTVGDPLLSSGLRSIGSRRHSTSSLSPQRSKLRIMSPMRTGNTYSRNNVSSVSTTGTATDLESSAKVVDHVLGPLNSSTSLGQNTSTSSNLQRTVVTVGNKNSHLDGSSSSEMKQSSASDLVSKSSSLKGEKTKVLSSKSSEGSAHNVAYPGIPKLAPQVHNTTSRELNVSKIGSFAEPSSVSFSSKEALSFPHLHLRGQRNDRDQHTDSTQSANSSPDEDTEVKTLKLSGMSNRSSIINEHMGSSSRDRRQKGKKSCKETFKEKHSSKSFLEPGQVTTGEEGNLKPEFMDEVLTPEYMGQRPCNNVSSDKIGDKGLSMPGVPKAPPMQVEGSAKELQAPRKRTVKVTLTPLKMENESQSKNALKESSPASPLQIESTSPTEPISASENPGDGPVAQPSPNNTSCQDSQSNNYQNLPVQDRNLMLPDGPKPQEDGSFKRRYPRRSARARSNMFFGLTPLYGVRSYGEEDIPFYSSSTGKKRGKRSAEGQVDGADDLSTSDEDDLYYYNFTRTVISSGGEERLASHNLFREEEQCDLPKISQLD
Sequence of Histone-lysine N-methyltransferase 2A (Homo sapiens) (Q03164 2719-3969 limits assumed): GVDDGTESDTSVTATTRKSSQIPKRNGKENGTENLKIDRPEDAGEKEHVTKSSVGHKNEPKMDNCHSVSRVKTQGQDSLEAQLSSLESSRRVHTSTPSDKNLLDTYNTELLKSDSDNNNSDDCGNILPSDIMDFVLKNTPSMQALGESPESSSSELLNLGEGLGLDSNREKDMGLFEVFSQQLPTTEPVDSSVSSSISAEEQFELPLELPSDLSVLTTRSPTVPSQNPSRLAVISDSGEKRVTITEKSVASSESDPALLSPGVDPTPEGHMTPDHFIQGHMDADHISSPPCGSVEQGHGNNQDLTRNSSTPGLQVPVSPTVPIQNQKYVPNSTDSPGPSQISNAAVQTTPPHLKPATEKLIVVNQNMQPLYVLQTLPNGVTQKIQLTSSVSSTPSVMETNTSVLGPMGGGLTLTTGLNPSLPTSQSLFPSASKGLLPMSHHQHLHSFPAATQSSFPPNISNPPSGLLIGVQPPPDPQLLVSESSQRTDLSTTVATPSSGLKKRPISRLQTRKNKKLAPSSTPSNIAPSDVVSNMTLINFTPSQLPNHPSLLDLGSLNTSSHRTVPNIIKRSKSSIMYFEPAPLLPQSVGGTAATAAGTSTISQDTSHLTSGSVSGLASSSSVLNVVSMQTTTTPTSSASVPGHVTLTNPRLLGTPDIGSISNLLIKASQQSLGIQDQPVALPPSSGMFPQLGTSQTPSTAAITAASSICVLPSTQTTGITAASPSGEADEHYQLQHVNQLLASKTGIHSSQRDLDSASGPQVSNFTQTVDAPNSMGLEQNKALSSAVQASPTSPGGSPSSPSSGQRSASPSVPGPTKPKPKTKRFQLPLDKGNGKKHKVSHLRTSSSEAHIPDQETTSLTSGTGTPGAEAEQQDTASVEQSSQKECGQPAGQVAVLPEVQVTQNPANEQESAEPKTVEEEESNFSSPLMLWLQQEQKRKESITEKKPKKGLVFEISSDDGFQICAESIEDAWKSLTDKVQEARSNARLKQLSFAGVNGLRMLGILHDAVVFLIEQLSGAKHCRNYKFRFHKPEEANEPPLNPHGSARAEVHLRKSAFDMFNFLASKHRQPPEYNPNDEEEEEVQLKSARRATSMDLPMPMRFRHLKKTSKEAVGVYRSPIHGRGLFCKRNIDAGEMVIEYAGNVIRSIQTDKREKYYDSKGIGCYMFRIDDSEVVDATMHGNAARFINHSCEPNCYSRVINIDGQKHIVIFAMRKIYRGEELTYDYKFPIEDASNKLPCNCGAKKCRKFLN

CN(C)CCCOc1ccc(-c2cc(NCCCn3cccn3)nc(S(C)(=O)=O)n2)cc1
dTM [1]: < 2 K

CNC(=O)Nc1ccc(-c2nc(N3CC4CCC(C3)O4)c3cnn(C4CCC5(CC4)OCCO5)c3n2)cc1
% of control [2]: 75%

CC[C@@H]1[C@H](F)C(=O)N[C@@H]1COc1nccc2cc(C(N)=O)c(OC)cc12 [ZIMLOVISERTIB]
% of inhibition ([3]; at 0.01 µM): 12.8% | % of inhibition ([3]; at 0.04 µM): -4.2% | % of inhibition ([3]; at 0.2 µM): 5.4% | % of inhibition ([3]; at 1 µM): 6% | % of inhibition ([3]; at 5 µM): 2.2%

COCC(=O)NC/C=C/c1ccc2ncnc(Nc3ccc(Oc4ccc(C)nc4)c(C)c3)c2c1 [CP-724714]
% of control [4]: 100%

CNCCN1CCC(c2cc(CN(C)C(=O)c3cccc(Oc4ccccc4)c3)ccn2)CC1
% activity [5]: > 85%

Cc1cc([C@@H](C)Nc2ccccc2C(=O)O)c2nc(N3CCOCC3)cc(=O)n2c1 [AZD-6482]
% of control [6]: 98%

O[C@H]1CC[C@H](Nc2ncc3nc(Nc4c(F)cc(F)cc4F)n([C@H]4CCOC4)c3n2)CC1
% of control [7]: 90% | % of control [8]: 100%

N#Cc1cccc(-c2c[nH]c3ncnc(N4CCOCC4)c23)c1
% of inhibition [9]: 11%
